Where two headings read alike, the source gives them in different places.
Columns and labels:
[1] = Pharmacokinetic study in rats after oral administration of R-FF or H-FF extract (UHPLC-MS/MS of serum); type: in vivo, SD rats; conditions: for eliminate rate (judged from t1/2 and MRT values): R-FF group; for AUC(0-inf) / AUC(0-t) / Cmax / Tmax / half-life / MRT last: male, SD, rat, serum, po, 140 g/kg, mean ± SD; for AUC(0-inf) / AUC(0-t) / Cmax / Tmax / half-life: n = 6; for MRT last: n = 6, read-out: MRT0–t; for change of T1/2 in H-FF group compared to R-FF group: oral, H-FF vs R-FF
Description: MS analysis was performed on a TSQ Quantis™ triple quadrupole mass spectrometer (Thermo Scientific™, Vanquish™, (Waltham, MA, USA)) equipped with an autosampler. Chromatographic separation was performed on a Thermo Hypersil GOLD C18 column (100 mm × 2.1 mm, 1.9 µm particles). The column temperature was maintained at 30°C. Through the Thermo Scientific™, TraceFinder™ software was acquired and processed. The mobile phase was composed of acetonitrile (A) and water (both containing 0.3% formic acid) (B) with a gradient elution program (0–5 min:10–19% acetonitrile, 5–8 min:19–25% acetonitrile, 8–28 min:25%–100% acetonitrile, 28–32 min: 100%–10%, and 32–34 min: 10%–10%). The system was re-equilibrated in the initial mobile phase 4.0 min before the next injection. The flow rate was set at 0.3 mL/min, and the injection volume was set as 2 μL.
The analytes were detected on a TSQ Quantis triple quadrupole mass spectrometer by selected reaction monitoring (SRM) equipped with a heated electrospray ionization source operated in negative ion modes. The parameters were set as follows: the sheath gas and the aux gas were set at 30 Arb and 10 Arb, respectively; the ion transfer tube temperature was maintained at 325°C; and the vaporizer temperature was set to 350°C.
5 μL of IS solution containing chloramphenicol 100 ng/ml and 795 μL of acetonitrile were added to a 100 μL drug serum sample for sedimentation of proteins. Subsequently, the 1.5 mL centrifuge tube containing mixture was vortexed for 5 min. After that, the mixture was centrifuged at 12,000 rpm for 20 min at 4°C. Finally, the supernatant fluid was removed and evaporated to dryness under a stream of nitrogen at 35°C. The dried residue was redissolved by 100 μL 50% methanol aqueous solution. And the supernatant prepared above was filtered through 0.22 μm membranes transferred to vials by the UHPLC-MS/MS system for data analysis.
12 adult male SD rats (weighing 250∼300 g) were used in pharmacokinetics experiments and randomly assigned to two groups: R-FF group and H-FF group. Before being administered R-FF or H-FF extract, all the rats fasted but with free access to water for 12 h. The R-FF or H-FF extract was orally administered to the rats (140 g/kg body weight). Aliquots of 0.3 ml blood samples were collected in 1.5 ml heparin lithium-anticoagulant tubes at (0.083, 0.166, 0.333, 0.5, 1, 2, 4, 6, 8, 12, 24, 36, and 48 h) via the postorbital venous plexus veins from each rat after oral administration. The blood sample was immediately centrifuged at 3500 rpm for 5 min, and the supernatant 100 μL serum was transferred into a new centrifuge tube and stored at −80°C until analysis.

[2] = type: in vitro ADME; conditions: rat plasma, IS 100 ng/mL, n = 3
Description: Short-term stability was calculated by keeping the QC samples at room temperature for 4 hours. Long-term stability was investigated by storing the same QC samples at −20°C in a refrigerator for 30 days. The freeze and thaw stability was determined by analyzing the same QC samples after 3 consecutive freeze-thaw (−20 to 20°C) cycles. The postpreparative stability was evaluated by keeping the QC samples at autosampler for 24 hours.

Structure (SMILES): O=C(O)/C=C/c1ccc(O)c(O)c1 [Caffeic acid, caffeic acid]
- eliminate rate (judged from t1/2 and MRT values) [1]: slow eliminate rate
- double peak phenomena in serum concentration-time curve ([1]; both R-FF and H-FF, Figure 3): obvious double peak phenomena
- AUC(0-inf) ([1]; oral H-FF extract 140 g/kg): 66.8 ± 12.2 µg·h/mL
- AUC(0-t) ([1]; oral H-FF extract 140 g/kg): 24.1 ± 2.06 µg·h/mL
- Cmax ([1]; oral H-FF extract 140 g/kg): 4.55 ± 0.235 µg/mL
- Tmax ([1]; oral H-FF extract 140 g/kg): 0.33 h
- half-life ([1]; oral H-FF extract 140 g/kg): 78.9 ± 26 h
- MRT last ([1]; oral H-FF extract 140 g/kg): 12.7 ± 0.38 h
- AUC(0-inf) ([1]; oral R-FF extract 140 g/kg): 35.2 ± 9.99 µg·h/mL
- AUC(0-t) ([1]; oral R-FF extract 140 g/kg): 20.2 ± 0.405 µg·h/mL
- Cmax ([1]; oral R-FF extract 140 g/kg): 4.47 ± 0.311 µg/mL
- Tmax ([1]; oral R-FF extract 140 g/kg): 0.33 h
- half-life ([1]; oral R-FF extract 140 g/kg): 32.3 ± 17.6 h
- MRT last ([1]; oral R-FF extract 140 g/kg): 14.3 ± 0.25 h

Structure (SMILES): O=C(N[C@H](CO)[C@H](O)c1ccc([N+](=O)[O-])cc1)C(Cl)Cl [Chloramphenicol (IS), chloramphenicol]
- Freeze-thaw stability (RE%) ([2]; 3 freeze-thaw cycles (−20 to 20°C)): −4.77%
- Short-term stability (RE%) ([2]; room temperature 4 hours): 0.74%
- Long-term stability (RE%) ([2]; −20°C 30 days): −2.22%

Structure (SMILES): O=C(/C=C/c1ccc(O)c(O)c1)O[C@@H]1C[C@](O)(C(=O)O)C[C@@H](O)[C@H]1O [Chlorogenic acid, chlorogenic acid]
- eliminate rate (judged from t1/2 and MRT values) [1]: slow eliminate rate
- AUC(0-inf) ([1]; oral H-FF extract 140 g/kg): 428 ± 41.6 µg·h/mL
- AUC(0-t) ([1]; oral H-FF extract 140 g/kg): 281 ± 10.8 µg·h/mL
- Cmax ([1]; oral H-FF extract 140 g/kg): 80.4 ± 6.35 µg/mL
- Tmax ([1]; oral H-FF extract 140 g/kg): 0.33 h
- half-life ([1]; oral H-FF extract 140 g/kg): 32.9 ± 4.87 h
- MRT last ([1]; oral H-FF extract 140 g/kg): 11.1 ± 0.16 h
- AUC(0-inf) ([1]; oral R-FF extract 140 g/kg): 236 ± 75.6 µg·h/mL
- AUC(0-t) ([1]; oral R-FF extract 140 g/kg): 167 ± 21.8 µg·h/mL
- Cmax ([1]; oral R-FF extract 140 g/kg): 75.6 ± 3.06 µg/mL
- Tmax ([1]; oral R-FF extract 140 g/kg): 0.33 h
- half-life ([1]; oral R-FF extract 140 g/kg): 33.4 ± 3.36 h
- MRT last ([1]; oral R-FF extract 140 g/kg): 10.6 ± 0.82 h
- change of T1/2 in H-FF group compared to R-FF group [1]: a little shorter

Structure (SMILES): O=C(/C=C/c1ccc(O)c(O)c1)O[C@H]1[C@H](O)C[C@](O)(C(=O)O)C[C@H]1O [Cryptochlorogenic acid, cryptochlorogenic acid]
- eliminate rate (judged from t1/2 and MRT values) [1]: slow eliminate rate
- AUC(0-inf) ([1]; oral H-FF extract 140 g/kg): 401 ± 22 µg·h/mL
- AUC(0-t) ([1]; oral H-FF extract 140 g/kg): 351 ± 16.7 µg·h/mL
- Cmax ([1]; oral H-FF extract 140 g/kg): 97.3 ± 1.15 µg/mL
- Tmax ([1]; oral H-FF extract 140 g/kg): 0.33 h
- half-life ([1]; oral H-FF extract 140 g/kg): 17.6 ± 1.57 h
- MRT last ([1]; oral H-FF extract 140 g/kg): 13.2 ± 0.39 h
- AUC(0-inf) ([1]; oral R-FF extract 140 g/kg): 242 ± 49.1 µg·h/mL
- AUC(0-t) ([1]; oral R-FF extract 140 g/kg): 170 ± 5.98 µg·h/mL
- Cmax ([1]; oral R-FF extract 140 g/kg): 67.8 ± 3.1 µg/mL
- Tmax ([1]; oral R-FF extract 140 g/kg): 0.33 h
- half-life ([1]; oral R-FF extract 140 g/kg): 21.9 ± 9.25 h
- MRT last ([1]; oral R-FF extract 140 g/kg): 11.2 ± 0.53 h
- change of T1/2 in H-FF group compared to R-FF group [1]: a little shorter
